In US7282507B2, “Indole derivatives as selective androgen receptor modulators (SARMS)” (Janssen Pharmaceutica N.V., priority 2004, dated 2007):
Where “and” joins values, the source holds several entries; their conditions need not be identical. Identical values can stand only once. Like-named read-outs stand apart in the source and are kept apart here.

Assays:
[1] = biological target: T1, androgen receptor (AdEasy+rAR, COS-7 cells) (Rattus norvegicus, UniProt P15207); test: COS-7 Whole-Cell Androgen Receptor Binding Assay, Adenovirus Transduction; conditions: for inhibition at 3 µM / % Inhibition, COS Binding: concentration of 3000 nM
T1 construct: expressed in transfected cells; host or cells: COS-7 cells transduced with adenovirus AdEasy+rAR
T1 sequence (P15207 1-902): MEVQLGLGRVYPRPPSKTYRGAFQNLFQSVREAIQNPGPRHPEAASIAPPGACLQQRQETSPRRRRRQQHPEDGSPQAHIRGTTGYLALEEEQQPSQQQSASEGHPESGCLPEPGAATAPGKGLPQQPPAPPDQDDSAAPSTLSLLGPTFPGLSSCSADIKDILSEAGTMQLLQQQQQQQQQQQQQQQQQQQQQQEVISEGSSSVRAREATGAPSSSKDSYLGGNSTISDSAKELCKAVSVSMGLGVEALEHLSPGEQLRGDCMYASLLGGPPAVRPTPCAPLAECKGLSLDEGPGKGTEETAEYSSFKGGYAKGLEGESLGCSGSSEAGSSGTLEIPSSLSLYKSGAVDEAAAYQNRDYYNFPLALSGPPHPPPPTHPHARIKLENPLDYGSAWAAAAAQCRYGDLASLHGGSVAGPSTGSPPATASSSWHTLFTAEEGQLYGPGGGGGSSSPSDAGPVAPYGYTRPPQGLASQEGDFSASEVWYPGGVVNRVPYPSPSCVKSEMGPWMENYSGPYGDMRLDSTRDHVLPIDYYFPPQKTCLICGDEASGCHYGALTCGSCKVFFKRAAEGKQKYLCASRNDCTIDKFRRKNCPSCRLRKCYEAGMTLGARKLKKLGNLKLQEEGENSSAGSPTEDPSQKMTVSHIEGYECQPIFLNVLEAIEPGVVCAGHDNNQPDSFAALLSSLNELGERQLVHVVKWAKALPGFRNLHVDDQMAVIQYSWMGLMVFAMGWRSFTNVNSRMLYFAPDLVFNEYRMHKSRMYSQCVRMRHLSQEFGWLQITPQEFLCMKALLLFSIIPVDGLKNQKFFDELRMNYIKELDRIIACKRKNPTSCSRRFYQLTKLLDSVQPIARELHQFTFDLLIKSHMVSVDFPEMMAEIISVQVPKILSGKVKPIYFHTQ
How it was run: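 COS-7 cells in phenol red-free DMEM/F12 with 10% charcoal-treated FBS were transduced with AdEasy+rAR adenovirus (moi 1:50 per well), exposed to test compound in duplicate and incubated for 48 h at 37° C. Cells were then lysed in 0.5% Triton X-100 and bound radioactivity counted by scintillation.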

[2] = biological target: T2, androgen receptor LBD (Panvera) (Rattus norvegicus, UniProt P15207); test: Androgen Receptor Filtration Binding Assay (PANVERA); conditions: [3H] R1881 tracer 0.5 nM; read-out: IC50 (nM), Androgen Receptor Binding (Panvera)
T2 construct: 5 pmol androgen receptor LBD (Panvera); purchased Panvera
T2 sequence (P15207 651-882 limits assumed): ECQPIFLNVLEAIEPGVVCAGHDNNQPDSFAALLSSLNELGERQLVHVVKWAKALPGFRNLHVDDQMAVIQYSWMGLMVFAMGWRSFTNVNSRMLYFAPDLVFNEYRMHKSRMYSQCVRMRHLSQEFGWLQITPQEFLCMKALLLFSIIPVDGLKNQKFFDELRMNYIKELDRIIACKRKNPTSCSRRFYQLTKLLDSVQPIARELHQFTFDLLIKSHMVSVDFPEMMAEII

[3] = read-out: IC50 (nM), COS Binding

## CC(O)(CCS(C)(=O)=O)c1cc2cc([N+](=O)[O-])c(C(F)(F)F)cc2[nH]1 (centres unmarked) [Compound 49]
[1]
  inhibition at 3 µM: 30%
[1]; [3]
  IC50: > 3000 nM

## CCSCC(O)c1cc2cc([N+](=O)[O-])c(C(F)(F)F)cc2[nH]1 (centres unmarked) [Compound 158]
[1]
  inhibition at 3 µM: 62%
[1]; 3 µM
  % Inhibition, COS Binding: 56%
[1]; [3]
  IC50: 160 nM and 550 nM

## CC(O)(CS(=O)(=O)c1ccc(O)cc1)c1cc2cc(Cl)c(C(F)(F)F)cc2[nH]1 (centres unmarked) [Compound 121]
[1]
  inhibition at 3 µM: 72%
[1]; [3]
  IC50: > 1800 nM

## CC(O)(CSc1ccc(O)cc1)c1cc2cc(Cl)c(C(F)(F)F)cc2[nH]1 (centres unmarked) [Compound 120]
[1]
  inhibition at 3 µM: 86%
[1]; [3]
  IC50: 205 nM

## COc1ccc(SCC(C)(O)c2cc3cc(Cl)c(C(F)(F)F)cc3[nH]2)cc1 (centres unmarked) [Compound 131]
[1]
  inhibition at 3 µM: 84%
[1]; [3]
  IC50: > 1600 nM

## CCSCC(C)(O)c1cc2cc([N+](=O)[O-])c(C(F)(F)F)cc2[nH]1 (single isomer, unassigned) [Compound 150]
[1]; 3 µM
  % Inhibition, COS Binding: 81% and 74%
[1]; [3]
  IC50: 165 nM and 627 nM

## CCSCC(C)(O)c1cc2cc([N+](=O)[O-])c(C(F)(F)F)cc2n1S(C)(=O)=O (centres unmarked) [Compound 141]
[1]
  inhibition at 3 µM: 42%
[1]; [3]
  IC50: > 3000 nM

## COc1ccc(SCC(C)(O)c2cc3cc(Cl)c(C(F)(F)F)cc3n2S(C)(=O)=O)cc1 (racemic) [Compound 130]
[1]
  % Inhibition, COS Binding: −8%

## CSCC(C)(O)c1cc2cc([N+](=O)[O-])c(C(F)(F)F)cc2[nH]1 (single isomer, unassigned) [Compound 145]
[1]
  inhibition at 3 µM: 84.7%
[1]; [3]
  IC50: 36.7 nM

## CCS(=O)(=O)CC(C)(O)c1cc2cc([N+](=O)[O-])c(C(F)(F)F)cc2[nH]1 (centres unmarked) [Compound 151]
[1]; 3 µM
  % Inhibition, COS Binding: 55%
[1]; [3]
  IC50: > 970 nM and 2190 nM

## CCSCC(C)(O)c1cc2cc([N+](=O)[O-])c(C(F)(F)F)cc2[nH]1 (single isomer, unassigned) [Compound 149]
[1]
  inhibition at 3 µM: 63%
[1]; [3]
  IC50: 780 nM and > 790 nM

## CCC(O)(CS(=O)(=O)CC)c1cc2cc([N+](=O)[O-])c(C(F)(F)F)cc2[nH]1 (centres unmarked) [Compound 176]
[1]
  inhibition at 3 µM: 75%

## CC(O)(C[S+]([O-])Cc1ccccc1)c1cc2cc([N+](=O)[O-])c(C(F)(F)F)cc2[nH]1 (mixture of isomers) [Compound 161]
[1]
  % Inhibition, COS Binding: 20%

## CCSCC(O)(CC)c1cc2cc([N+](=O)[O-])c(C(F)(F)F)cc2[nH]1 (centres unmarked) [Compound 169]
[1]
  inhibition at 3 µM: 90%
[1]; [3]
  IC50: 48 nM

## CC(O)(CSC1CCCC1)c1cc2cc([N+](=O)[O-])c(C(F)(F)F)cc2[nH]1 (centres unmarked) [Compound 173]
[1]
  inhibition at 3 µM: 17%
[1]; [3]
  IC50: > 3000 nM

## CC(O)(CS(C)(=O)=O)c1cc2cc([N+](=O)[O-])c(C(F)(F)F)cc2[nH]1 (centres unmarked) [Compound 147]
[1]; 3 µM
  % Inhibition, COS Binding: 6.1%
[1]; [3]
  IC50: > 3000 nM

## CC(O)(CS(C)(=O)=O)c1cc2cc([N+](=O)[O-])c(C(F)(F)F)cc2[nH]1 (centres unmarked) [Compound 140]
[1]; 3 µM
  % Inhibition, COS Binding: 51.5%
[1]; [3]
  IC50: > 1500 nM

## CC(O)(CSCc1ccccc1)c1cc2cc([N+](=O)[O-])c(C(F)(F)F)cc2[nH]1 (centres unmarked) [Compound 160]
[1]
  inhibition at 3 µM: 84%
[1]; [3]
  IC50: 250 nM

## CCCSCC(C)(O)c1cc2cc([N+](=O)[O-])c(C(F)(F)F)cc2[nH]1 (centres unmarked) [Compound 168]
[1]
  inhibition at 3 µM: 60%
[1]; [3]
  IC50: > 3000 nM

## CSCCC(C)(O)c1cc2cc([N+](=O)[O-])c(C(F)(F)F)cc2[nH]1 (centres unmarked) [Compound 47]
[1]
  inhibition at 3 µM: 78%
[1]; [3]
  IC50: > 1000 nM

## CC(O)(CS(=O)(=O)c1ccc(N)cc1)c1cc2cc(Cl)c(C(F)(F)F)cc2[nH]1 (centres unmarked) [Compound 118]
[1]
  inhibition at 3 µM: 62%
[1]; [3]
  IC50: > 1500 nM

## CSCC(C)(O)c1cc2cc(C#N)c(C(F)(F)F)cc2[nH]1 (centres unmarked) [Compound 136]
[1]
  inhibition at 3 µM: 4.8%
[1]; [3]
  IC50: 527 nM

## CC(O)(CS(C)(=O)=O)c1cc2cc([N+](=O)[O-])c(C(F)(F)F)cc2[nH]1 (centres unmarked) [Compound 148]
[1]; 3 µM
  % Inhibition, COS Binding: 32%
[1]; [3]
  IC50: > 2400 nM

## COc1ccc(S(=O)(=O)CC(C)(O)c2cc3cc(Cl)c(C(F)(F)F)cc3[nH]2)cc1 (racemic) [Compound 129]
[1]
  % Inhibition, COS Binding: 10%

## CSCC(C)(O)c1cc2cc(Cl)c(C(F)(F)F)cc2[nH]1 (centres unmarked) [Compound 135]
[1]
  inhibition at 3 µM: 98%
[1]; [3]
  IC50: 320 nM

## CC(O)(CS(C)(=O)=O)c1cc2cc(Cl)c(C(F)(F)F)cc2[nH]1 (centres unmarked) [Compound 138]
[1]
  inhibition at 3 µM: 78%
[1]; [3]
  IC50: 317 nM

## CC(C)SCC(C)(O)c1cc2cc([N+](=O)[O-])c(C(F)(F)F)cc2[nH]1 (centres unmarked) [Compound 164]
[1]
  inhibition at 3 µM: 68%
[1]; [3]
  IC50: > 1000 nM

## CCS(=O)(=O)C[C@](C)(O)c1cc2cc([N+](=O)[O-])c(C(F)(F)F)cc2[nH]1 [Compound 156, 1-Ethanesulfonyl-2-(5-nitro-6-trifluoromethyl-1H-indol-2-yl)-propan-2-ol]
[1]; IC50 (nM), COS Binding
  IC50: > 1000 nM
[1]
  inhibition at 3 µM: 42%
[1]; 3 µM
  % Inhibition, COS Binding: 52%

## CCSCC(C)(O)c1cc2cc([N+](=O)[O-])c(C(F)(F)F)cc2n1C (racemic) [Compound 165]
[1]
  inhibition at 3 µM: 69%
[1]; [3]
  IC50: > 3000 nM

## CC[S+]([O-])C[C@](C)(O)c1cc2cc([N+](=O)[O-])c(C(F)(F)F)cc2[nH]1 (stereo in doubt) [Compound 155, 1-Ethanesulfinyl-2-(5-nitro-6-trifluoromethyl-1H-indol-2-yl)-propan-2-ol]
[1]
  inhibition at 3 µM: 35%

## CC(O)(CSc1ccc([N+](=O)[O-])cc1)c1cc2cc(Cl)c(C(F)(F)F)cc2[nH]1 (centres unmarked) [Compound 122]
[1]
  inhibition at 3 µM: 66%
[1]; [3]
  IC50: > 1600 nM

## CSCC(C)(O)c1cc2cc([N+](=O)[O-])c(C(F)(F)F)cc2[nH]1 (single isomer, unassigned) [Compound 144]
[1]; [3]
  IC50: 375 nM

## CC(O)(CSCC(F)(F)F)c1cc2cc([N+](=O)[O-])c(C(F)(F)F)cc2[nH]1 (centres unmarked) [Compound 171]
[1]
  inhibition at 3 µM: 92%
[1]; 3 µM
  % Inhibition, COS Binding: 94%
[1]; [3]
  IC50: 145 nM

## CC(O)(CSc1ccc(N)cc1)c1cc2cc(Cl)c(C(F)(F)F)cc2[nH]1 (centres unmarked) [Compound 104]
[2]
  IC50: 930 nM
[1]
  inhibition at 3 µM: 94%

## CC(C)CSCC(C)(O)c1cc2cc([N+](=O)[O-])c(C(F)(F)F)cc2[nH]1 (centres unmarked) [Compound 170]
[1]
  inhibition at 3 µM: 67%
[1]; [3]
  IC50: > 3000 nM

## CCS(=O)(=O)CC(C)(O)c1cc2cc([N+](=O)[O-])c(C(F)(F)F)cc2[nH]1 (centres unmarked) [Compound 143]
[1]
  inhibition at 3 µM: 68%
[1]; [3]
  IC50: > 1500 nM

## CCSCC(C)(O)c1cc2cc([N+](=O)[O-])c(C(F)(F)F)cc2[nH]1 (racemic) [Compound 142]
[1]
  inhibition at 3 µM: 90%
[1]; [3]
  IC50: 220 nM
